Assay results published in patent publication US10696615B2, “Prenylated hydroxystilbenes” (The University of Sydney, priority 2011, dated 2020).

Key:
NCI-H522 = assay: NCI in vitro cancer screen, Non-Small Cell Lung Cancer; format: cell-based, human; conditions: NCI-H522
KM12 = assay: NCI in vitro cancer screen, Colon Cancer; format: cell-based, human; conditions: KM12
OVCAR-3 = assay: NCI in vitro cancer screen, Ovarian Cancer; format: cell-based, human; conditions: OVCAR-3
HT29 = assay: NCI in vitro cancer screen, Colon Cancer; format: cell-based, human; conditions: HT29
SNB-75 = assay: NCI in vitro cancer screen, CNS Cancer; format: cell-based, human; conditions: Homo sapiens, SNB-75
MCF7 = assay: NCI in vitro cancer screen, Breast Cancer; format: cell-based, human; conditions: MCF7
IGROV1 = assay: NCI in vitro cancer screen, Ovarian Cancer; format: cell-based, human; conditions: IGROV1
DU-145 = assay: NCI in vitro cancer screen, Prostate Cancer; format: cell-based, human; conditions: DU-145
ACHN = assay: NCI in vitro cancer screen, Renal Cancer; format: cell-based, human
HCT-116 = assay: NCI in vitro cancer screen, Colon Cancer; format: cell-based, human; conditions: HCT-116
HOP-92 = assay: NCI in vitro cancer screen, Non-Small Cell Lung Cancer; format: cell-based, human; conditions: HOP-92
HL-60 (TB) = assay: NCI in vitro cancer screen, Leukemia; format: cell-based, human; conditions: HL-60 (TB)
K-562 = assay: NCI in vitro cancer screen, Leukemia; format: cell-based, human; conditions: K-562
OVCAR-5 = assay: NCI in vitro cancer screen, Ovarian Cancer; format: cell-based, human; conditions: OVCAR-5
SF-539 = assay: NCI in vitro cancer screen, CNS Cancer; format: cell-based; conditions: SF-539
ADR-RES (NCI/ADR-RES) = assay: NCI in vitro cancer screen, Ovarian Cancer; format: cell-based, human
COLO 205 = assay: NCI in vitro cancer screen, Colon Cancer; format: cell-based, human; conditions: COLO 205
U251 = assay: NCI in vitro cancer screen, CNS Cancer; format: cell-based, human; conditions: U251
SW-620 = assay: NCI in vitro cancer screen, Colon Cancer; format: cell-based, human; conditions: SW-620
UACC-257 = assay: NCI in vitro cancer screen, Melanoma; format: cell-based, human; conditions: UACC-257
UO-31 = assay: NCI in vitro cancer screen, Renal Cancer; format: cell-based, human; conditions: UO-31
NCI-H322M = assay: NCI in vitro cancer screen, Non-Small Cell Lung Cancer; format: cell-based, human
SNB-19 = assay: NCI in vitro cancer screen, CNS Cancer; format: cell-based, human; conditions: SNB-19
[1] = tested on: MDA-MB-231 (MDA-MB-231/ATCC); assay: NCI in vitro cancer screen, Breast Cancer; format: cell-based, human; conditions: MDA-MB-231
CAKI-1 = assay: NCI in vitro cancer screen, Renal Cancer; format: cell-based, human; conditions: CAKI-1
A549/ATCC = assay: NCI in vitro cancer screen, Non-Small Cell Lung Cancer; format: cell-based, human
SF-295 = assay: NCI in vitro cancer screen, CNS Cancer; format: cell-based, human; conditions: SF-295
MOLT-4 = assay: NCI in vitro cancer screen, Leukemia; format: cell-based, human; conditions: MOLT-4
OVCAR-4 = assay: NCI in vitro cancer screen, Ovarian Cancer; format: cell-based, human; conditions: OVCAR-4
MALME-3M = assay: NCI in vitro cancer screen, Melanoma; format: cell-based, human
NCI-H226 = assay: NCI in vitro cancer screen, Non-Small Cell Lung Cancer; format: cell-based, human; conditions: NCI-H226
[2] = Homo sapiens, read-out: LC50 (the source's name)

COc1cc(O)cc(/C=C/c2ccc(O)c(O)c2)c1CC=C(C)C [USYDS9, (E)-2-(3-methyl-2-buten-1-yl)-3′,4′,5-trihydroxy-3-methoxystilbene]
GI50 (NCI-H522; Homo sapiens): 0.15 µM
CC50 (NCI-H522; [2]): 44.8 µM
TGI (NCI-H522): 0.45 µM
GI50 (KM12; Homo sapiens): 0.52 µM
CC50 (KM12; [2]): 63.9 µM
TGI (KM12): 12.2 µM
GI50 (OVCAR-3; Homo sapiens): 0.9 µM
CC50 (OVCAR-3; [2]): 24.8 µM
TGI (OVCAR-3): 3.84 µM
TGI (HT29): 46.6 µM
GI50 (HT29; Homo sapiens, HT-29): 18.6 µM
CC50 (HT29; Homo sapiens, HT-29, read-out: LC50 (the source's name)): > 100 µM
GI50 (SNB-75): 0.24 µM
CC50 (SNB-75; read-out: LC50 (the source's name)): > 100 µM
GI50 (MCF7; Homo sapiens): 2.81 µM
CC50 (MCF7; [2]): > 100 µM
TGI (MCF7): >100 µM
GI50 (IGROV1; Homo sapiens, IGROV-1): 4.57 µM
CC50 (IGROV1; Homo sapiens, IGROV-1, read-out: LC50 (the source's name)): > 100 µM
TGI (IGROV1): >100 µM
TGI (DU-145): 2.62 µM
GI50 (DU-145; Homo sapiens): 0.35 µM
CC50 (DU-145; [2]): > 100 µM
TGI (ACHN): >100 µM
GI50 (ACHN; Homo sapiens): 0.66 µM
CC50 (ACHN; [2]): > 100 µM
TGI (HCT-116): 12.8 µM
GI50 (HCT-116; Homo sapiens): 1.4 µM
LC50 (concentration killing 50% of cells) (HCT-116; Homo sapiens): 75 µM
TGI (HOP-92): >100 µM
GI50 (HOP-92; Homo sapiens): 0.62 µM
CC50 (HOP-92; [2]): > 100 µM
TGI (HL-60 (TB)): 0.43 µM
GI50 (HL-60 (TB); Homo sapiens): 0.2 µM
CC50 (HL-60 (TB); [2]): 0.95 µM
GI50 (K-562; Homo sapiens, K562): 0.33 µM
CC50 (K-562; Homo sapiens, K562, read-out: LC50 (the source's name)): > 100 µM
TGI (K-562): 13.9 µM
GI50 (OVCAR-5; Homo sapiens): 30.7 µM
CC50 (OVCAR-5; [2]): > 100 µM
TGI (OVCAR-5): >100 µM
GI50 (SF-539; Homo sapiens): 0.28 µM
CC50 (SF-539; [2]): > 100 µM
TGI (SF-539): 1.02 µM
TGI (ADR-RES (NCI/ADR-RES); ADR-RES): 3.69 µM
GI50 (ADR-RES (NCI/ADR-RES); Homo sapiens, NCI/ADR-RES): 0.29 µM
CC50 (ADR-RES (NCI/ADR-RES); Homo sapiens, NCI/ADR-RES, read-out: LC50 (the source's name)): > 100 µM
TGI (COLO 205): 83.6 µM
GI50 (COLO 205; Homo sapiens): 21.7 µM
CC50 (COLO 205; [2]): > 100 µM
GI50 (U251; Homo sapiens, U-251): 0.59 µM
CC50 (U251; Homo sapiens, U-251, read-out: LC50 (the source's name)): > 100 µM
TGI (U251): 19.6 µM
GI50 (SW-620; Homo sapiens): 0.31 µM
CC50 (SW-620; [2]): 75 µM
TGI (SW-620): 15.3 µM
GI50 (UACC-257; Homo sapiens): 6.15 µM
CC50 (UACC-257; [2]): > 100 µM
TGI (UACC-257): 59.2 µM
GI50 (UO-31; Homo sapiens): 0.46 µM
CC50 (UO-31; [2]): > 100 µM
TGI (UO-31): >100 µM
TGI (NCI-H322M): >100 µM
GI50 (NCI-H322M; Homo sapiens): 0.76 µM
LC50 (50% lethal concentration) (NCI-H322M; Homo sapiens): > 100 µM
GI50 (SNB-19; Homo sapiens): 0.55 µM
CC50 (SNB-19; [2]): > 100 µM
TGI (SNB-19): >100 µM
GI50 ([1]; Homo sapiens): 0.38 µM
CC50 [1, 2]: > 100 µM
TGI [1]: 2.61 µM
TGI (CAKI-1): >100 µM
GI50 (CAKI-1; Homo sapiens): 19.1 µM
CC50 (CAKI-1; [2]): > 100 µM
TGI (A549/ATCC): 41.5 µM
GI50 (A549/ATCC; Homo sapiens): 2.62 µM
CC50 (A549/ATCC; [2]): > 100 µM
GI50 (SF-295; Homo sapiens): 2.6 µM
CC50 (SF-295; [2]): > 100 µM
TGI (SF-295): 20.5 µM
GI50 (MOLT-4; Homo sapiens): 1.27 µM
CC50 (MOLT-4; [2]): > 100 µM
TGI (MOLT-4): 6.77 µM
GI50 (OVCAR-4; Homo sapiens): 5.48 µM
CC50 (OVCAR-4; [2]): > 100 µM
TGI (OVCAR-4): >100 µM
GI50 (MALME-3M; Homo sapiens, Malme-3M): 0.62 µM
CC50 (MALME-3M; Homo sapiens, Malme-3M, read-out: LC50 (the source's name)): > 100 µM
TGI (MALME-3M; MALME-3M): >100 µM
GI50 (NCI-H226; Homo sapiens): 18.6 µM
LC50 (50% lethal concentration) (NCI-H226; Homo sapiens): > 100 µM
TGI (NCI-H226): 57.9 µM
